Test results reported in patent US7759367B2, “Pharmaceutical compositions and their uses” (Eisai R&D Management Co., Ltd., priority 2001, dated 2010).
Like-named read-outs stand apart in the source and are kept apart here.

Assays:
male mice of ddy strain = experiment: Anticonvulsant action induced by AMPA (Test Example 2); format: in vivo; settings: 25 mg/kg orally, AMPA 2 nmole/5 μl/minute/mouse into lateral ventricle 30 minutes or 1 hour after dosing
Experimental: A test compound was suspended in a 0.5% methyl cellulose solution or in sesame oil and was orally administered (25 mg/kg) to male mice of ddy strain. After 30 minutes or 1 hour from the oral administration, AMPA was continuously injected (2 nmole/5 μl/minute/mouse) into lateral ventricle to induce the convulsions. The effect was judged by a time-extending action until the convulsion takes place by a continuous injection of AMPA.

Female Lewis rats = experiment: Experimental autoimmune encephalomyelitis model (Test Example 10); format: in vivo, rat; settings: p.o. 5, 10 and 20 mg/kg, 10-16 dpi
Experimental: Female Lewis rats (205±10 g) obtained from Charles River, Kent UK, were housed in pairs under environmentally controlled conditions (6:00a.m.-6:00p.m. light/dark cycle; 22-24° C.; 45-55% humidity) and allowed free access to food and water. Experimental groups consisted of 9-12 animals. Rats were immunised in each hind foot with 20-50 μl of inoculum containing 50 μg guinea pig myelin basic protein (MBP; final concentration 2 mg/ml), emulsified in Freund's complete adjuvant (CFA; Sigma, UK) containing Mycobacterium tuberculosis H37Ra (final concentration 5.5 mg/ml; Difco Laboratories, UK). Animals were weighed and monitored daily and clinical disease scored as (0) no clinical signs; (1) flaccid tail and weight loss; (2) hind limb hypotonia with further weight loss; (3) complete hind limb paralysis; (4) paraplegia and (5) death. […] During the period of compound administration (10-16 days post immunisation; dpi) animals were scored 15 h after injection of vehicle or compound to avoid any acute effect of treatment on disease score. Compounds were dissolved/suspended in 0.5% methyl cellulose using a hand held Polytron homogeniser (PT1200; 2 min). Rats were dosed p.o. with either methyl cellulose vehicle (2.5 ml/kg) or compound at 5, 10 and 20 mg/kg.

Lewis rats = experiment: Acute EAE in Lewis rats: Example 7 alone and combined with interferon-β (In Vivo Example 1); settings: Lewis rat acute EAE, Example 7 10 mg/kg p.o., interferon-β 1×10^6 Units/rat s.c., once daily 7-16 dpi
Experimental: Female Lewis rats (200+10 g) obtained from Charles River, Kent, UK, were housed in pairs under environmentally controlled conditions (6:00 a.m.-6:00 p.m. light/dark cycle; 22-24° C.; 45-55% humidity) and allowed free access to food and water. Experimental groups consisted of 8 animals.
Rats were immunised in each hind foot with 15 μl of inoculum containing […] guinea pig myelin basic protein (MBP, prepared by the method of Dunkley and Carnegie (1974); final concentration 2 mg/ml), emulsified in Freund's complete adjuvant (CFA; Sigma, UK) containing Mycobacterium tuberculosis H37Ra (final concentration 5.5 mg/ml; Difco Laboratories, UK).
Animals were weighed and monitored daily and clinical disease scored as (0) no clinical signs; (1) flaccid tail and weight loss; (2) hind limb hypotonia with further weight loss; (3) complete hind limb paralysis; (4) paraplegia and (5) death. […] During the period of compound administration (7-16 days post immunisation; dpi) animals were scored 15 h after injection of vehicle, compound of example 7 or interferon-β to avoid any acute effect of treatment on disease score.
3-(2-Cyanophenyl)-1-phenyl-5-(2-pyridyl)-1,2-dihydropyridin-2-one; (example 7) was suspended in 0.5% methyl cellulose (MC) solution to obtain a compound concentration of 4 mg/ml. Interferon-β was dissolved in PBS to obtain a compound concentration of 5×10^6 Units/ml. Rats were dosed once daily (9 a.m.) on days 7 to 16 post immunisation with either vehicle (methyl cellulose p.o. and PBS s.c.), the compound alone in the dose of 10 mg/kg (p.o. plus vehicle PBS s.c), interferon-β alone in the dose of 1×10^6 Units/rat (s.c. plus methyl cellulose p.o.) or example 7 in the dose of 10 mg/kg (p.o) combined with interferon-β in the dose of 1×10^6 Units/rat (s.c.).

[1] = suppression of AMPA-induced calcium influx into nerve cells, Table 2
[2] = primary culture of rat embryo cerebral cortex nerve cells, Fura2-AM, 2 μM AMPA, 1 μM MK-801
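For IC50 in this document: neurons cultured at least 8 to 10 days atop an astrocyte layer in 96-well plates, calcium entry read as the change in Fura2 fluorescence ratio at 340/380 nm excitation.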

Experimental for AMPA receptor: Cerebral cortex was cut out from the brain of rat of gestational 18 days and treated with trypsin and DNase to disperse the cells. The cells were flown by MEM containing 10% of serum, sown in a culture bottle and astrocytes were proliferated. The astrocytes were re-dispersed by trypsin and sown in a 96-well plate. After incubation for one week, it was confirmed that the astrocytes covered all over the bottom and then the nerve cells of cerebral cortex which was dispersed by the above method were sown thereupon. After incubation for 24 hours, the medium was changed, the incubation was carried out for one week and, after that, the medium was changed to that containing 1 μM of MK-801. Nerve cells which were incubated for not shorter than 8 to 10 days were used.
Calcium influx into the cells was measured using Fura2-AM which was a calcium-sensitive fluorescent dye. It was treated in a medium containing Fura2-AM for 1 hour, incorporated into the cells, exchanged to a Tyrode solution containing 1 μM MK-801 and stimulation was carried out using 2 μM AMPA. Change in the amount of calcium flown into the cells were measured as the change in the fluorescent intensity at the exciting wave length of 340/380 nm.

Structure (SMILES)	Anticonvulsant action (time-extending action until convulsion by continuous AMPA injection) (male mice of ddy strain)	Effect on EAE vs vehicle-administered group (Female Lewis rats)	IC50 (AMPA receptor; [2]) [nM]	further results
N#Cc1ccccc1-c1cc(-c2ncccn2)cn(-c2ccccc2)c1=O [Example 164, 3-(2-Cyanophenyl)-1-phenyl-5-(2-pyrimidinyl)-1,2-dihydropyridin-2-one]	significant anticonvulsant action	superior effect to the vehicle-administered group	–	IC50 (AMPA receptor; [1]): 80 nM
N#Cc1ccccc1-c1cc(-c2ccccc2)cn(-c2ccccc2)c1=O [Example 41, 3-(2-Cyanophenyl)-1,5-diphenyl-1,2-dihydropyridin-2-one]	significant anticonvulsant action	–	80	–
N#Cc1ccccc1-c1cc(-c2ccccn2)cn(-c2ccccc2)c1=O [Example 7, 3-(2-Cyanophenyl)-1-phenyl-5-(2-pyridyl)-1,2-dihydropyridin-2-one]	significant anticonvulsant action	superior effect to the vehicle-administered group	100	Duration (days) (Lewis rats; mean and range, n=8): 3.0 (0-4) days; Onset (d.p.i.) (Lewis rats; mean and range, n=8 (n=1 for the combination)): 11.8 (11-15) d.p.i.; Effect on disease progression (paralysis, disease score, onset, duration) during EAE, in words (Lewis rats; n=8/group): significantly delayed disease onset, shortened disease duration and reduced peak and cumulative disease score; Peak Disease Score (Lewis rats; clinical score 0-5, mean and range, n=8): 1.8 (0-3); Cumulative Disease Score (Lewis rats; summation of individual daily disease scores, mean and range, n=8): 4.8 (0-10); Weight Loss (%) (Lewis rats; weight on 18 dpi as percent of maximum weight before disease onset, mean and range, n=8): 17 (10-23) %
O=c1c(-c2cccnc2F)cc(-c2ccccn2)cn1-c1ccccc1 [Example 76, 3-(2-Fluoro-3-pyridyl)-5-(2-pyridyl)-1-phenyl-1,2-dihydropyridin-2-one]	significant anticonvulsant action	superior effect to the vehicle-administered group	–	–
N#Cc1ccccc1-c1cc(-c2ccccn2)cn(-c2cccnc2)c1=O [Example 32, 3-(2-Cyanophenyl)-5-(2-pyridyl)-1-(3-pyridyl)-1,2-dihydropyridin-2-one]	significant anticonvulsant action	superior effect to the vehicle-administered group	100	–
N#Cc1ccccc1-c1cc(-c2ncccn2)cn(-c2cccnc2)c1=O [Example 261, 3-(2-Cyanophenyl)-1-(3-pyridyl)-5-(2-pyrimidinyl)-1,2-dihydropyridin-2-one]	significant anticonvulsant action	superior effect to the vehicle-administered group	–	–
N#Cc1ncccc1-c1cc(-c2ccccn2)cn(-c2ccccc2)c1=O [Example 16, 3-(2-Cyano-3-pyridyl)-5-(2-pyridyl)-1-phenyl-1,2-dihydropyridin-2-one]	significant anticonvulsant action	–	100	–
O=c1c(-c2cccnc2F)cc(-c2ccccn2)cn1-c1cccnc1 [Example 139, 3-(2-Fluoro-3-pyridyl)-5-(2-pyridyl)-1-(3-pyridyl)-1,2-dihydropyridin-2-one]	significant anticonvulsant action	superior effect to the vehicle-administered group	–	–
N#Cc1ccccc1-c1cc(-c2ccccn2)cn(-c2ccc(F)cc2)c1=O [Example 91, 3-(2-Cyanophenyl)-5-(2-pyridyl)-1-(4-fluorophenyl)-1,2-dihydropyridin-2-one]	significant anticonvulsant action	–	50	–
O=c1c(-c2ccccc2[N+](=O)[O-])cc(-c2ccccn2)cn1-c1ccccc1 [Example 270, 3-(2-Nitrophenyl)-1-phenyl-5-(2-pyridyl)-1,2-dihydropyridin-2-one]	significant anticonvulsant action	–	–	–
N#Cc1ccccc1-c1cc(-c2cnccn2)cn(-c2ccccc2)c1=O [Example 199, 3-(2-Cyanophenyl)-1-phenyl-5-(2-pyrazinyl)-1,2-dihydropyridin-2-one]	significant anticonvulsant action	–	–	–
N#Cc1sccc1-c1cc(-c2ccccn2)cn(-c2cccnc2)c1=O [Example 137, 3-(2-Cyanothiophen-3-yl)-5-(2-pyridyl)-1-(3-pyridyl)-1,2-dihydropyridin-2-one]	significant anticonvulsant action	–	–	–
CN(C)c1cccc(-n2cc(-c3ccccn3)cc(-c3ccccc3C#N)c2=O)c1 [Example 12, 3-(2-Cyanophenyl)-5-(2-pyridyl)-1-(3-dimethylaminophenyl)-1,2-dihydropyridin-2-one]	significant anticonvulsant action	–	100	–
N#Cc1cccnc1-c1cc(-c2ccccn2)cn(-c2ccccc2)c1=O [Example 78, 3-(3-Cyano-2-pyridyl)-5-(2-pyridyl)-1-phenyl-1,2-dihydropyridin-2-one]	significant anticonvulsant action	–	1400	–
O=c1c(-c2ccccc2)cc(-c2ccccn2)cn1-c1ccccc1 [Example 61, 3-Phenyl-5-(2-pyridyl)-1-phenyl-1,2-dihydropyridin-2-one]	significant anticonvulsant action	–	–	–
O=c1c(-c2cccnc2F)cc(-c2ncccn2)cn1-c1ccccc1 [Example 262, 3-(2-Fluoropyridin-3-yl)-1-phenyl-5-(2-pyrimidinyl)-1,2-dihydropyridin-2-one]	significant anticonvulsant action	superior effect to the vehicle-administered group	–	IC50 (AMPA receptor; [1]): 300 nM
N#Cc1ncccc1-c1cc(-c2ncccn2)cn(-c2ccccc2)c1=O [Example 264, 3-(2-Cyanopyridin-3-yl)-1-phenyl-5-(2-pyrimidyl)-1,2-dihydropyridin-2-one]	significant anticonvulsant action	superior effect to the vehicle-administered group	–	–
N#Cc1ccccc1-c1cc(-c2ccccn2)cn(-c2cccc(N)c2)c1=O [Example 9, 3-(2-Cyanophenyl)-5-(2-pyridyl)-1-(3-aminophenyl)-1,2-dihydropyridin-2-one]	significant anticonvulsant action	–	30	–
